Measured values taken from patent US10738041B2, “Ferroportin inhibitors” (Vifor (International) AG, priority 2015, dated 2020).

target: T1, ferroportin (Fpn) (Mus musculus, UniProt Q9JHI9); assay: Hepcidin Internalization Assay (J774); format: cell-based; conditions: average of multiple measurements; inhibition of TMR-hepcidin (25 nM) internalization into J774 cells; read-out: J774 IC50
T1 construct: host or cells: J774 mouse macrophage cell line, Fe(III)-NTA induced
T1 sequence (Q9JHI9 1-570): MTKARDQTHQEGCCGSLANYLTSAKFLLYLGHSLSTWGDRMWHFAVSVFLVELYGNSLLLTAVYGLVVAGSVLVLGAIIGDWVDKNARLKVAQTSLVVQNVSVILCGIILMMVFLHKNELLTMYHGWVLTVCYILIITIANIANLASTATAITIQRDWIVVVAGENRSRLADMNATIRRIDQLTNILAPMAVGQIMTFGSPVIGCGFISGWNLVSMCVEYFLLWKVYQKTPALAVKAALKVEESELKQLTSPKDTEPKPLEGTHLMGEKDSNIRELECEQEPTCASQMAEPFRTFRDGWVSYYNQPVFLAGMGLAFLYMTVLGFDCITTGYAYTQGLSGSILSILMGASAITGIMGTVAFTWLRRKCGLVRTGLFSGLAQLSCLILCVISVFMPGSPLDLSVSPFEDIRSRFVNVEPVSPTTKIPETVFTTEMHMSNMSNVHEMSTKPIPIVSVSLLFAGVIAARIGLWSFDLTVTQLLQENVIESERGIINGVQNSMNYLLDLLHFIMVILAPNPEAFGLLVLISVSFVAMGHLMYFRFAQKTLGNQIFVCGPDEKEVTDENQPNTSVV
Source text: This cellular assay allows quantification of the binding of hepcidin to ferroportin (Fpn) through microscopic detection of internalization of a fluorescently labeled hepcidin into J774 cells. […] Binding of hepcidin to Fpn triggers internalization and degradation of both hepcidin and Fpn. However, the TMR (6-carboxytetramethylrhodamine) fluorophore attached to hepcidin remains associated with the cell after degradation of the hepcidin peptide backbone. Therefore, microscopic detection of ceH associated TMR fluorescence is a measure of hepcidin binding to Fpn and internalization of hepcidin and Fpn. If TMR-hepcidin is prevented from binding to Fpn, cellular TMR fluorescence remains low (Dürrenberger et al, 2013). The effect of small molecular weight Fpn inhibitor compounds in this assay was evaluated in vitro as described below.
J774 cells, harvested from ca. 80% confluent cultures, were plated at 8×10^5 cells/ml in complete medium (DMEM, 10% FBS, 1% Penicillin-Streptomycin) containing 200 μM Fe(III)NTA (nitrilotriacetic acid), 100 μl per well of 96 well MicroClear plates (Greiner; Cat. 655090) and grown at 37° C. with 5% CO2. After overnight incubation, cells were washed 3 times with pre-warmed DMEM w/o phenol red, 30 μl/well of DMEM w/o phenol red was added after the final wash and 10 μl/well of dilution series of test compounds were added in triplicates. […] Cells were incubated in a total volume of 50 μl at 37° C. with 5% CO2 for 2 hours, then Hoechst 33342 dye was added to a final concentration of 0.5 μg/ml to stain nuclei and further incubated for 10 min. at 37° C. with 5% CO2. Cells were washed 3 times with PBS and fixed in 100 μl of 4% paraformaldehyde in PBS for 15 min. at room temperature. After removal of the paraformaldehyde solution, cells were washed 3 times with PBS leaving 100 μl per well and the plates were sealed with foil plate seal. TMR (530-550 nm excitation/575-625 nm emission/400 ms exposure time) and Hoechst 33342 (360-370 nm excitation/420-460 nm emission/10 ms exposure time) fluorescence images were acquired using a ScanR plate imager (Olympus) with a 20× high NA objective. Four pictures were acquired per well and fluorescence channel covering ca. 1500 cells per well. The acquired image data was analysed with the ScanR image analysis software. Image analysis included detection of nuclei (Hoechst 33342 fluorescence), identification of cell-associated regions, application of a virtual channel and thresholding for rolling-ball-type background reduction, followed by application of the Sum(Mean) algorithm to measure the TMR fluorescence associated with cells as a quantitative measure for internalized TMR-hepcidin. IC50 values were calculated with the Sum(Mean) raw data using “log(inhibitor) vs. response” curve fitting of Prism 5 software (GraphPad Software Inc., version 5.02).

| Compound | IC50 |
| --- | --- |
| O=C(NCc1ncccc1F)c1csc(CCN(CCc2nc3ccccc3[nH]2)CC2CC2)n1 [Example 148] | 2080 nM |
| O=C(c1csc(CCNCc2nc3ccccc3[nH]2)n1)N1CCOCC1 [Example 18] | 8700 nM |
| O=C(NCc1ncccc1F)c1coc(CCNCCc2nc3c(C(F)(F)F)cccc3[nH]2)n1 [Example 256] | 81 nM |
| O=C(NCc1ncccc1F)c1nc(C2CN(CCc3nc4ccccc4[nH]3)C2)sc1Cl [Example 209] | 379 nM |
| O=C(Cc1nc2ccccc2[nH]1)NCCc1nc(C(=O)NCc2ncccc2F)cs1 [Example 113] | > 25000 nM |
| O=C(NC1CCc2cccnc21)c1cnn(C2CN(CCc3nc4ccccc4[nH]3)C2)c1 (stereo not drawn) [Example 191] | 330 nM |
| O=C(NCc1ccccn1)c1nc(CCNCc2nc3ccccc3[nH]2)sc1Cl [Example 160] | 256 nM |
| O=C(NCc1ccccc1)c1csc(CCNCc2nccs2)n1 [Example 3] | 16600 nM |
| Cc1sc(CCNCc2nc3ccccc3[nH]2)nc1C(=O)NCc1ncccc1F [Example 164] | 343 nM |
| Cn1nc(CNCCc2nc3ccccc3[nH]2)cc1C(=O)NCc1ncccc1F [Example 220] | 290 nM |
| O=C(NCc1ncccn1)c1csc(CCNCCc2nc3ccccc3[nH]2)n1 [Example 129] | 353 nM |
| CCCCN(CCc1nc2ccccc2[nH]1)CCc1nc(C(=O)NCc2ncccc2F)cs1 [Example 157] | 717 nM |
| O=C(NCc1ccccc1)c1csc(CCNCc2n[nH]c3ccccc23)n1 [Example 5] | 10400 nM |
| O=C(NCc1ncccc1F)c1cnn(CCNCc2nc3ccccc3[nH]2)c1 [Example 145] | 385 nM |
| O=C(NCc1ncccc1F)c1nc(CCNCc2nc3ccccc3[nH]2)sc1C(F)(F)F [Example 176] | 957 nM |
| Cc1ccc(CNC(=O)c2csc(CCNCCc3nc4ccccc4[nH]3)n2)nn1 [Example 174] | 141 nM |
| O=C(NCc1ccccn1)c1nc(CCNCCc2nc3ccccc3[nH]2)sc1Cl [Example 184] | 63 nM |
| O=C(NCc1ncccc1F)c1nc(C2(O)CN(CCc3nc4ccccc4[nH]3)C2)sc1Cl [Example 211] | 747 nM |
| NCCCN(CCc1nc2ccccc2[nH]1)CCc1nc(C(=O)NCc2ncccc2F)cs1 [Example 163] | 828 nM |

| Compound | IC50 |
| --- | --- |
| NC(=O)c1csc(CCNCc2nc3ccccc3[nH]2)n1 [compound 23] | 15800 nM |
| O=C(NCc1ccccc1)c1csc(CCNC(=O)c2nc3ccccc3[nH]2)n1 [Example 7] | 14200 nM |
| Cc1cnc(CNC(=O)c2nc(CCNCCc3nc4ccccc4[nH]3)sc2Cl)nc1 [Example 182] | 989 nM |
| O=C(NCc1ncccc1F)c1coc(CNCCc2nc3ccccc3[nH]2)n1 [Example 206] | 180 nM |
| O=C(NC1CCc2cccnc21)c1cnn(CCNCCc2nc3ccccc3[nH]2)c1 (stereo not drawn) [Example 131] | 90 nM |
| O=C(NCc1ncccc1F)c1coc(CCNCCc2nc3c(F)ccc(Cl)c3[nH]2)n1 [Example 247] | 82 nM |
| CC(C)(Cc1nc(C(=O)NCc2ncccc2F)cs1)NCc1nc2ccccc2[nH]1 [Example 231] | 5200 nM |
| O=C(NCc1cccnn1)c1nc(CCNCCc2nc3ccccc3[nH]2)sc1Cl [Example 183] | 131 nM |
| CC(C)(CNCCc1nc(C(=O)NCc2ncccc2F)cs1)c1nc2ccccc2[nH]1 [Example 199] | 780 nM |
| O=C(NCc1ncccc1F)c1coc(CCNCc2nc3c(F)cccc3[nH]2)n1 [Example 253] | 226 nM |
| O=C(NCc1ccccn1)c1cnn(CCNCCc2nc3ccccc3[nH]2)c1 [Example 109] | 76 nM |
| O=C(NCc1ccccn1)c1coc(CCNCCc2nc3c(F)cccc3[nH]2)n1 [Example 236] | 150 nM |
| CC(=O)N(CCc1nc(C(=O)NCc2ccccc2)cs1)Cc1nccn1C [Example 4] | 15400 nM |
| O=C(NCc1ncc(F)cc1F)c1csc(CCNCCc2nc3cc(F)ccc3[nH]2)n1 [Example 123] | 170 nM |
| O=C(NCc1cccnn1)c1coc(C2CN(CCc3nc4ccccc4[nH]3)C2)n1 [Example 244] | 90 nM |
| O=C(NCc1ncccc1F)c1csc(CCNCc2nc3ccccc3o2)n1 [Example 115] | > 25000 nM |
| O=C(NCc1ncccc1F)c1coc(C2CN(CCc3nc4c(C(F)(F)F)cccc4[nH]3)C2)n1 [Example 273] | 228 nM |
| O=C(NCc1ncccc1Cl)c1coc(CCNCCc2nc3ccccc3[nH]2)n1 [Example 173] | 6 nM |
| O=C(NCc1ncccc1F)[C@@H]1CCN(CCNCc2nc3ccccc3[nH]2)C1 [compound 202] | 5000 nM |

| Compound | IC50 |
| --- | --- |
| O=C(NCc1ccccc1)c1csc(CCNC(=O)c2ncc[nH]2)n1 [Example 8] | 42900 nM |
| O=C(NCc1ncccn1)c1nc(CCNCc2nc3ccccc3[nH]2)sc1Cl [Example 175] | 1020 nM |
| COc1cccc2[nH]c(CCNCCc3nc(C(=O)NCc4ncccc4F)co3)nc12 [Example 227] | 130 nM |
| O=C(NCc1ncccc1F)c1csc(CCNCc2nc3ccc(F)cc3[nH]2)n1 [Example 114] | 118 nM |
| O=C(NCc1ncccc1F)c1coc(CCNCCc2nc3c(F)ccc(F)c3[nH]2)n1 [Example 251] | 62 nM |
| O=C(NCc1ccccn1)c1nc(CCN2CCc3nc4ccccc4n3C2)sc1Cl [Example 189] | 60 nM |
| O=C(NCc1ncccc1Cl)c1csc(C2CN(CCc3nc4ccccc4[nH]3)C2)n1 [Example 195] | 210 nM |
| Cc1sc(CCNCCc2nc3ccccc3[nH]2)nc1C(=O)NCc1ncccc1F [Example 165] | 100 nM |
| Cc1nn(CCNCc2nc3ccccc3[nH]2)c(C)c1C(=O)NCc1ncccc1F [Example 142] | 21600 nM |
| O=C(NCc1ncccc1F)c1cn(CCNCCc2nc3ccccc3[nH]2)nc1C(F)(F)F [Example 162] | 297 nM |
| O=C(NCc1ncccc1F)c1coc(CCNCCc2nc3c(F)c(F)ccc3[nH]2)n1 [Example 257] | 35 nM |
| Cc1sc(CCNCCc2nc3ccccc3[nH]2)nc1C(=O)NCc1ncccn1 [Example 188] | 1160 nM |
| O=C(NCc1ncccc1F)c1csc(CCNCc2nc3c(F)cccc3[nH]2)n1 [Example 274] | 145 nM |
| O=C(NCc1ncccc1F)c1cnn(C2CCN(CCc3nc4ccccc4[nH]3)CC2)c1 [Example 198] | 27000 nM |
| O=C(NCc1ncccc1F)c1nc(CCNCCc2nc3ccccc3[nH]2)sc1C(F)(F)F [Example 186] | 300 nM |
| O=C(NCc1ncccc1F)c1cn(CCNCc2nc3ccccc3[nH]2)nc1C(F)(F)F [Example 156] | 2460 nM |
| Cc1cnc(CNC(=O)c2csc(CCNCCc3nc4ccccc4[nH]3)n2)nc1 [Example 155] | 347 nM |
| O=C(NCc1ccccn1)c1coc(C2CN(CCc3nc4c(F)cccc4[nH]3)C2)n1 [Example 258] | 152 nM |
| O=C(NCc1ncccc1F)c1nc(CNCCc2nc3ccccc3[nH]2)cs1 [Example 205] | 370 nM |
